Experimental data from a melting point compilation (Tetko et al.; mined from patent text by program, amines drawn as free bases though some values may be those of a salt).

Compound | melting point [°C]
CS(=O)(=O)Nc1ccc(C=O)cc1Sc1ccc(F)cc1F | 109 to 111
CCOC(=O)C1CN(CC)c2nc(SC)ncc2C1=O (stereo not drawn) | 157
O=c1c2c(Cc3ccccc3)n[nH]c2c2cccnc2n1-c1cccc([N+](=O)[O-])c1 | 276 to 279
C=C(C)C(=O)Nc1cccc(O)c1 | 171 to 173
O=C(CCC(=O)N1CCC[C@H]1C(=O)O)c1ccc(Br)s1 | 166 to 168
O=C1Nc2ccc(Cl)cc2C(C#Cc2ccccc2)(C(F)(F)Cl)O1 (racemic) | 154 to 155
O=C(Nc1nc2cnccc2s1)Oc1ccccc1 | > 290
CNC(=S)Nc1cc(C)ccc1N1CCOCC1 | 107
NS(=O)(=O)c1ccccc1N1CCCC1 | 78
COc1ccc2c(OCc3cc(OC)c(F)cc3Br)cccc2c1 | 138 to 142
O=S(=O)(c1ccccc1)n1c(Cc2cccc(-c3cc4ccccc4n3S(=O)(=O)c3ccccc3)c2)cc2ccccc21 | 76 to 78
CC1CCC(C(=O)Nc2ccccc2)=C2NC=C(C(=O)O)C(=O)N21 (stereo not drawn) | 200 to 201
O=C1NCC(C(=O)NCCO[N+](=O)[O-])S1 (stereo not drawn) | 114 to 115
O=C(CCl)Nc1ccc2[nH]c(=O)oc2c1 | 228 to 231
N#Cc1c[nH]c(-c2ccccc2)c1C#N | 197 to 200
CONC(=O)Nc1ccc(-c2sc3c(c2CN(C)Cc2ccccc2)c(=O)n(-c2ccccc2)c(=O)n3Cc2c(F)cccc2F)cc1 | 204 to 205
COc1cc(OC)c2c(=O)oc(=O)[nH]c2c1 | 287 to 293
CC(CCC(O)C(C)(C)O)C1CCC2C3CCC4CC(O)CCC4(C)C3CCC12C (stereo not drawn) | 152 to 154
O=C(NCc1ccn(-c2cc3c(cc2[N+](=O)[O-])[nH]c(=O)c(=O)n3C2CCCCC2)c1)Nc1ccncc1 | > 200
CCCCCCCCCCCCCCCCC(Cl)C(=O)O (stereo not drawn) | 63.5 to 64
O=C(CBr)Nc1ccccc1 | 131 to 135

Compound | melting point [°C]
Nc1ncnc2c1ncn2Cc1nc2c(Cl)cccc2c(=O)n1-c1ccccc1Cl | 273 to 274
CCC1(CCO)C(=O)N2CC=CC(C(=O)OC)N2C1=O (stereo not drawn) | 87 to 92
CC1=NN(c2ccccc2)C(=O)C1C(=O)Nc1ccc(O)cc1 (stereo not drawn) | 135 to 140
COc1cc(SC)ccc1O | 47 to 49
N#CC(=Cc1ccc(O)c(O)c1)C(=O)Nc1ccc(Br)cc1 | 277 to 278
O=C(O)Cc1cccc2c(=O)cc(-c3ccccc3F)oc12 | 179 to 181
CNc1nc(C)c(C(C)=O)s1 | 164 to 165
CC(C)C(C)NC1=NS(=O)(=O)c2cc(Cl)c(Cl)cc2N1 (stereo not drawn) | 242 to 250
C(=Nc1ccc(Nc2ccccc2)cc1)Nc1ccc(Nc2ccccc2)cc1 | 173 to 175
CC(=O)N[C@@H](C)c1ccc(C(C)=O)cc1 | 125 to 128
NOC(C=CCBr)C(=O)O (stereo not drawn) | 53 to 55
C=CCOc1cccc(C(=O)O)c1 | 78 to 79
COc1ccc2c(c1)C(=O)CC21CNC(=O)C1 (stereo not drawn) | 179 to 180
CC(C)n1c(/C=C/C=O)c(-c2ccc(F)cc2)c2ccccc2c1=O | 159 to 161
N#Cc1cc(F)c(-n2cnc(C(F)(F)F)cc2=O)cc1F | 95
CC1(C)CC(NC(=O)Nc2ccccc2)CC(C)(C)N1CC#N | 218 to 220
CC(=O)Nc1ccc([N+](=O)[O-])cc1OC[Si](C)(C)C | 128
CCn1cc(C(=O)O)c(=O)c2ccc(-c3cccnc3)cc21 | 268 to 269
COc1ccc(C(=O)c2sc3ccccc3c2-c2ccccc2)cc1 | 94 to 95
O=c1[nH][nH]c(C(F)(F)F)c1Cc1ccc2nccnc2c1 | 266 to 268
CC(NC1=C(N=Nc2ccccc2)C(=O)SC1)c1ccccc1 (stereo not drawn) | 129 to 130

Compound | melting point [°C]
CCCCCc1cc(C(=O)O)c(C)o1 | 47 to 48
COc1ccc(C(=O)NCCCCCNC(=O)c2ccc(OC)cc2)cc1 | 160 to 161
COc1ccc(C(=O)Nc2c(Cl)cncc2Cl)c2c1oc1ccc(NC(C)=O)cc12 | 252
CCn1cc(S(=O)(=O)NC(=O)c2cn3cc(C(F)(F)F)cc(Cl)c3n2)c(C)n1 | 189 to 190
COCCC1CCN(c2ccc(C#N)c3ccccc23)CC1 | 95 to 96
Cc1nc(C#N)ccc1N | 192 to 196
O=C1N(Cc2cc3ccccc3o2)c2ccccc2C12COc1cc3c(cc12)OCO3 (stereo not drawn) | 167 to 168
CCCc1c(OCCCC#CC(=O)O)ccc(C(C)=O)c1O | 115 to 116
CCn1ccc2c(c1=O)CN=C(N1CCNCC1)N2 | 117 to 120
CC(=O)Oc1ccccc1[C@@H]1SC(C)(C)[C@H](C(=O)O)N1C(C)=O | 214 to 216
COc1ccc(-n2nnc(-c3ccc(F)cc3F)c2N)cc1 | 152 to 156
CC1(C)C(C=CC(=O)OC2CC2)C1C(=O)OC(C#N)c1cccc(Oc2ccccc2)c1 (stereo not drawn) | 62
O=C(NC1CN2CCC1CC2)c1cccc2c1CCC2 (racemic) | 158
Cc1ccc(OC2SCC(O)C(O)C2O)c(-c2ccncc2)n1 (stereo not drawn) | 196 to 200
COC(=O)C12CCc3ccccc3C1=NN(C(=O)Nc1ccc(C(F)(F)F)cc1)C2 (stereo not drawn) | 177 to 180
COC(=O)CCC(CSc1ccc2ccccc2c1)C(=O)O (stereo not drawn) | 70 to 71
COc1ccc2c(c1)C(=O)N(c1cnc3c(ccn3C)c1)C2 | 198 to 199
N#CC=C1CC2(CCCC2)c2ccccc21 | 82
COc1ccc(C(=O)COc2ccc(C(=O)OCc3ccccc3)c(O)c2)cc1C(C)(C)C | 98 to 99

Results, then the compound that gave them:

melting point [°C] | Compound
240 to 247 | CC(C)c1ccc(-c2ccc3c(c2)C=C(C(=O)Nc2ccc(CN(C)C4CCOCC4)cc2)CCS3(=O)=O)cc1
188 to 191 | CCCCCCCCCCCCNC1=NC(C)(C)N=C(NCc2ccc(S(N)(=O)=O)cc2)N1
160 to 162 | C=C(c1ccc(-c2ncnn2COCC)cc1)C(O)(Cn1cncn1)c1ccc(F)cc1F (stereo not drawn)
122 | CCOC(=O)N1CCN(C2=Nc3ccccc3Oc3ccc(Cl)cc32)CC1
74 to 75 | Clc1cc(-c2ccnc(NCC3CCCO3)n2)ccn1 (stereo not drawn)
171 to 172 | CCCN(CC1CC1)c1nc(C)nc2c1CCCC2(C)c1ccc(Cl)cc1 (stereo not drawn)
225 to 227 | CCNc1nnc2ccc(-c3cccc(N(C)C(C)=O)c3)nn12
190 | O=C1NC(c2ccc(Cl)cc2)Nc2ccccc21 (stereo not drawn)
165 | NCC1CCN(c2ncc3ncnc(Nc4ccc(F)c(Cl)c4)c3n2)CC1
246 to 247 | CC(C)(C)OC(=O)c1ncn2c1cc(N1CCN(C(=O)OC(C)(C)C)CC1)c1cc(Cl)ccc12
163 to 164 | CCN1CCN(c2nc(C)c(C(=O)NCc3cccnc3)s2)C1=O
129 to 130 | CCOC(=O)Cc1c(CC)nn(-c2ccccc2)c1CC
114 to 117 | CSc1ccc(CC2CCc3cc(OCCn4ccnc4)ccc3C2=O)cc1 (stereo not drawn)
251 to 252 | COc1c(O)nc(-c2ccc(OCc3ccccc3)cc2)nc1O
130 to 135 | CN(C)CC(O)Cn1c2ccccc2c2c3c(c4c5ccccc5n(C)c4c21)C(=O)NC3=O (stereo not drawn)
163 to 165 | CCCNC(=S)Nc1nc(OCc2cccc(C#N)c2)ncc1F
216 to 218 | CCOC(=O)c1nn(-c2ccccc2)c(=O)c2c1c1ccc(Cl)cc1n2C
157 to 159 | COc1ccc(-c2nc(C(=O)N3CCN(C(=O)NC(C)C)CC3)sc2-c2ccc(OC)cc2)cc1
121 to 123 | CCCc1cc(NC(=O)N2CCN(c3cc(F)cc(F)c3)CC2)c(OC)nc1C
166 to 168 | CCOCc1nc2c(N)nc3cc(S(C)(=O)=O)ccc3c2n1CCCOC
105 to 108 | Cn1ncnc1COc1nc2c(cc1C(C)(C)C)nnn2-c1c(F)cccc1F

melting point [°C] | Compound
306 to 309 | Cc1ncn(-c2cc(C)c3[nH]c(=O)ccc3c2)c1[N+](=O)[O-]
193 to 194 | CC1(C)C(=O)Nc2ccc(-c3ccc(C#N)o3)cc21
250 | O=C1CCC(c2ccccc2)(c2ccccc2)[C@@H]2CN(C(=O)Cc3c[nH]c4ccccc34)C[C@H]12 (racemic)
252 | N#CC1=C(C2CCCCCC2)Nc2n[nH]cc2C1c1cccc(C#N)c1Br (stereo not drawn)
137 to 138 | CCCN(CCC)[C@H]1Cc2c[nH]c3ccc(C(=O)NN)c(c23)C1
123 to 125 | CCCCCC(=O)c1c(C)nc2cc(OC)c(OC)cc2c1-c1ccc(OC)c(OC)c1
> 250 | CN1CCN(c2ncnc3oc(-c4ccc([N+](=O)[O-])cc4)c(-c4ccc(F)cc4)c23)CC1
155 to 164 | COc1ccc(-n2nnc(-c3ccc(Cl)cc3Cl)c2N)cc1
139 to 140 | COc1cc2c(c3c1OC(C)(C)C3)C(c1ccnc(Cl)c1)=NC(C)(C)C2
116 to 122 | CC(C)(C)NNC(=O)c1ccc(Cl)cc1
115 to 117 | N#Cc1[nH]c2ccc(Cl)cc2c1-c1ccccc1
208 to 213 | COc1ccc(-c2ccc3c(c2)S(=O)(=O)NC(C2CCCCC2)N3)c(OC)c1 (stereo not drawn)
112 | CC(=O)c1ccc2c(c1)Sc1ccccc1O2
154 to 155 | CCOC(=O)C1=C(C)NC(C)=C(C(=O)OCC)C1c1ccc(Br)cc1F
135 to 136 | CCOC(=O)C1=C2C(=CC3=C(CCCC3)N2O)SC1C (stereo not drawn)
157 to 160 | Fc1ccccc1C1=NCc2cnc(Cl)nc2-c2ccc(Cl)cc21
195 to 200 | COc1cc2c(c(O)c1OC)C(Cc1ccc(F)cc1)NCC2 (stereo not drawn)
159 to 160 | CCCc1nc2c(N)nc3cc(Cl)ccc3c2s1
305 to 309 | CC(C)(C)C1=CC(=Nc2ccc(C(=O)O)cc2)C=C(C(C)(C)C)C1=O
97 to 102 | COc1ccc(Cl)cc1-c1nccn1-c1ccccc1
137 to 139 | Cn1nc(NC(=O)Nc2ccccc2)nc1NCCCOc1cccc(CN2CCCCC2)c1
